Data from ChEMBL document CHEMBL5120848, “Tapping into the antitubercular potential of 2,5-dimethylpyrroles: A structure-activity relationship interrogation” (Eur J Med Chem, 2022).
Converted amounts (≈) assume the structure as drawn. The source made the active and inactive calls. No cut-off for these calls is given here.

Assays:
[1] = test system: Mycobacterium tuberculosis; assay: Anti-tubercular activity against Mycobacterium tuberculosis CF161 assessed as inhibition of mycobacterial growth incubated for 7 days by resazurin-dye based analysis; assay type: functional; settings: CF161, 168 h, time 7 day
[2] = test system: Mycobacterium tuberculosis; assay: Anti-tubercular activity against Mycobacterium tuberculosis CF61 assessed as inhibition of mycobacterial growth incubated for 7 days by resazurin-dye based analysis; assay type: functional; settings: CF61, 168 h, time 7 day
[3] = test system: Mycobacterium tuberculosis; assay: Anti-tubercular activity against Mycobacterium tuberculosis CF76 assessed as inhibition of mycobacterial growth incubated for 7 days by resazurin-dye based analysis; assay type: functional; settings: CF76, 168 h, time 7 day
[4] = test system: Mycobacterium tuberculosis; assay: Anti-tubercular activity against Mycobacterium tuberculosis infected in mouse J774.A1 cells assessed as inhibition of intracellular bacilli growth incubated for 72 hrs; assay type: functional, organism-based
[5] = test system: Mycobacterium tuberculosis; assay: Anti-tubercular activity against Mycobacterium tuberculosis CF152 assessed as inhibition of mycobacterial growth incubated for 7 days by resazurin-dye based analysis; assay type: functional; settings: CF152, 168 h, time 7 day
[6] = Selectivity index, ratio of IC50 for cytotoxicity against mouse J774.A1 cells to MIC90 for anti-tubercular activity against Mycobacterium tuberculosis H37Rv; assay type: toxicity, cell-based; settings: read-out: Selectivity Index
[7] = test system: Mycobacterium tuberculosis; assay: Bacteriostatic activity against Mycobacterium tuberculosis H37Rv at 1XMIC measured for 12 days by time-kill kinetics analysis; assay type: functional, organism-based; settings: time 12.0 day
[8] = test system: Mycobacterium tuberculosis; assay: Anti-tubercular activity against Mycobacterium tuberculosis H37Rv assessed as inhibition of mycobacterial growth incubated for 7 days by resazurin-dye based analysis; assay type: functional; settings: 168 h, time 7 day
[9] = Cytotoxicity against human MRC5 cells assessed as reduction in cell viability incubated for 24 hrs by resazurin-dye based analysis; assay type: toxicity
[10] = Cytotoxicity against mouse J774.A1 cells assessed as reduction in cell viability incubated for 24 hrs by resazurin-dye based analysis; assay type: toxicity
[11] = Selectivity index, ratio of IC50 for cytotoxicity against human MRC5 cells to MIC90 for anti-tubercular activity against Mycobacterium tuberculosis H37Rv; assay type: toxicity, cell-based; settings: read-out: Selectivity Index
[12] = test system: Mycobacterium tuberculosis; assay: Anti-tubercular activity against Mycobacterium tuberculosis CF16 assessed as inhibition of mycobacterial growth incubated for 7 days by resazurin-dye based analysis; assay type: functional; settings: CF16, 168 h, time 7 day
[13] = test system: Mycobacterium tuberculosis; assay: Bactericidal activity against Mycobacterium tuberculosis H37Rv assessed as log reduction of bacterial colonies at 1XMIC measured on day 12 by time-kill kinetics analysis (reference value: 7.54 log10CFU/ml); assay type: functional; settings: time 12 day

SMILES	selectivity ratio [6]	MIC90 [8]	IC50 at 24 h [9]	IC50 at 24 h [10]	selectivity ratio [11]	other results
Cc1cc(CNCC2CCCCC2)c(C)n1-c1nc2ccccc2s1	21.2	0.4 µg/mL (≈ 1.13 µM)	10.3 µg/mL (≈ 29.2 µM)	8.47 µg/mL (≈ 24 µM)	25.8	MIC90 [1]: 13.6 µg/mL (≈ 38.5 µM); MIC90 [2]: 23.5 µg/mL (≈ 66.5 µM); MIC90 [3]: 19.6 µg/mL (≈ 55.5 µM); Activity [4]: Active; MIC90 [5]: 10.9 µg/mL (≈ 30.9 µM); Activity [7]: Active; MIC90 [12]: 20.1 µg/mL (≈ 56.9 µM)
NNC(=O)c1ccncc1 [ISONIAZID]		0.11 µg/mL (≈ 0.802 µM)				MIC90 [1]: > 25 µg/mL; MIC90 [2]: > 25 µg/mL; MIC90 [3]: > 25 µg/mL; Activity [4]: Active; MIC90 [5]: > 25 µg/mL; MIC90 [12]: > 25 µg/mL
Cc1cc(CNCc2ccccc2)c(C)n1-c1ccccn1		> 25 µg/mL				
Cc1cc(CNCc2ccccc2)c(C)n1CC1CCCCC1	2.04	6.58 µg/mL (≈ 21.2 µM)	18.3 µg/mL (≈ 58.8 µM)	13.4 µg/mL (≈ 43.3 µM)	2.78	
Cc1cc(CNCCCCNC(=N)N)c(C)n1-c1ccc(Cl)cc1.Cl.Cl		14.2 µg/mL				
Cc1cc(CNC2CCCCC2)c(C)n1-c1ccc(OCC(=O)N(C)C)cc1		> 25 µg/mL				
Cc1cc(CNNC(=O)c2ccncc2)c(C)n1-c1ccc(Cl)cc1			96.1 µg/mL (≈ 271 µM)	78.5 µg/mL (≈ 221 µM)		
Cc1cc(CNCc2ccccc2)c(C)n1Cc1ccc(Cl)cc1		10.6 µg/mL (≈ 31.1 µM)				
Cc1cc(CNC2CCCCC2)c(C)n1-c1ccc(OCC(=O)O)cc1		16.4 µg/mL (≈ 45.9 µM)				
Cc1cc(CNCC2CCCCC2)c(C)n1-c1ccccn1		16.3 µg/mL (≈ 54.7 µM)				
Cc1cc(CNCC2CCCCC2)c(C)n1Cc1ccc(F)cc1	13.6	0.73 µg/mL (≈ 2.22 µM)	21 µg/mL (≈ 63.9 µM)	9.88 µg/mL (≈ 30.1 µM)	28.8	MIC90 [1]: 7.31 µg/mL (≈ 22.3 µM); MIC90 [2]: 9.38 µg/mL (≈ 28.6 µM); MIC90 [3]: 18.8 µg/mL (≈ 57.2 µM); Activity [4]: Active; MIC90 [5]: 7.53 µg/mL (≈ 22.9 µM); Activity [7]: Active; MIC90 [12]: 7.69 µg/mL (≈ 23.4 µM)
Cc1cc(CNC2CCC(NC(=N)N)CC2)c(C)n1-c1ccc(Cl)cc1.Cl.Cl (centres undefined)		10.4 µg/mL				
Cc1cc(CNCC2CCCCC2)c(C)n1C1CCCC1		9.21 µg/mL (≈ 31.9 µM)				
Cc1cc(CNCC2CCCCC2)c(C)n1Cc1ccc(Cl)cc1	4.25	1.39 µg/mL (≈ 4.03 µM)	10.8 µg/mL (≈ 31.2 µM)	5.92 µg/mL (≈ 17.2 µM)	7.71	
Cc1cc(CNCc2ccccc2)c(C)n1Cc1ccc(F)cc1	2.26	6.96 µg/mL (≈ 21.6 µM)	16.2 µg/mL (≈ 50.1 µM)	15.7 µg/mL (≈ 48.7 µM)	2.32	
CO[C@H]1/C=C/O[C@@]2(C)Oc3c(C)c(O)c4c(O)c(c(/C=N/N5CCN(C)CC5)c(O)c4c3C2=O)NC(=O)/C(C)=C\C=C\[C@H](C)[C@H](O)[C@@H](C)[C@@H](O)[C@@H](C)[C@H](OC(C)=O)[C@@H]1C [RIFAMPIN]		0.05 µg/mL (≈ 0.0608 µM)				MIC90 [1]: > 25 µg/mL; MIC90 [2]: > 25 µg/mL; MIC90 [3]: > 25 µg/mL; MIC90 [5]: > 25 µg/mL; MIC90 [12]: 0.2 µg/mL (≈ 0.243 µM)

SMILES	selectivity ratio [6]	MIC90 [8]	IC50 at 24 h [9]	IC50 at 24 h [10]	selectivity ratio [11]	other results
Cc1cc(CNC2CCC(N)CC2)c(C)n1-c1ccc(Cl)cc1.Cl.Cl (centres undefined)		> 25 µg/mL				
Cc1cc(CNCCCCCCCCNC(=N)N)c(C)n1-c1ccc(OCC(=O)O)cc1.Cl.Cl		13.2 µg/mL				
Cc1cc(CNCC2CCCCC2)c(C)n1C1CCCCC1	6.89	1.74 µg/mL (≈ 5.75 µM)	26.7 µg/mL (≈ 88.3 µM)	12 µg/mL (≈ 39.6 µM)	15.3	
NCC[C@H](O)C(=O)N[C@@H]1C[C@H](N)[C@@H](O[C@H]2O[C@H](CN)[C@@H](O)[C@H](O)[C@H]2O)[C@H](O)[C@H]1O[C@H]1O[C@H](CO)[C@@H](O)[C@H](N)[C@H]1O [AMIKACIN]		0.25 µg/mL (≈ 0.427 µM)				MIC90 [1]: 0.24 µg/mL (≈ 0.41 µM); MIC90 [2]: 0.91 µg/mL (≈ 1.55 µM); MIC90 [3]: 0.25 µg/mL (≈ 0.427 µM); MIC90 [5]: 0.19 µg/mL (≈ 0.324 µM); MIC90 [12]: 0.22 µg/mL (≈ 0.376 µM)
Cc1cc(CNCCCCCCCCNC(=N)N)c(C)n1-c1ccc(OCC(=O)N(C)C)cc1.Cl.Cl	1.43	8.91 µg/mL	36 µg/mL	12.8 µg/mL	4.04	
CCOc1ccc(-n2c(C)cc(CNC3CCCCC3)c2C)cc1	1.78	5.14 µg/mL (≈ 15.7 µM)	19.9 µg/mL (≈ 61 µM)	9.17 µg/mL (≈ 28.1 µM)	3.87	
COc1c(N2C[C@@H]3CCCN[C@@H]3C2)c(F)cc2c(=O)c(C(=O)O)cn(C3CC3)c12 [MOXIFLOXACIN]	209	≤ 0.07 µg/mL	> 100 µg/mL	14.6 µg/mL (≈ 36.3 µM)	1430	MIC90 [1]: 0.17 µg/mL (≈ 0.423 µM); MIC90 [2]: 0.27 µg/mL (≈ 0.673 µM); MIC90 [3]: 0.2 µg/mL (≈ 0.498 µM); Activity [4]: Active; MIC90 [5]: 0.57 µg/mL (≈ 1.42 µM); MIC90 [12]: 0.14 µg/mL (≈ 0.349 µM)
Cc1cc(CNCC2CCCCC2)c(C)n1C(C)c1ccccc1 (centres undefined)	13.5	4.48 µg/mL (≈ 13.8 µM)	23.4 µg/mL (≈ 72.2 µM)	60.6 µg/mL (≈ 187 µM)	5.23	MIC90 [1]: 9.94 µg/mL (≈ 30.6 µM); MIC90 [2]: 10.2 µg/mL (≈ 31.3 µM); MIC90 [3]: 9.13 µg/mL (≈ 28.1 µM); Activity [4]: Active; MIC90 [5]: 4.32 µg/mL (≈ 13.3 µM); MIC90 [12]: 8.7 µg/mL (≈ 26.8 µM); Activity [13]: 3.94 log10CFU/ml
Cc1cc(CNCC2CCCCC2)c(C)n1Cc1ccccn1		23 µg/mL (≈ 73.9 µM)				
Cc1cc(CNCc2ccccc2)c(C)n1-c1nc2ccccc2s1		11.2 µg/mL (≈ 32.1 µM)				
Cc1cc(CNCc2ccccc2)c(C)n1C1CCCC1		13.4 µg/mL (≈ 47.6 µM)				
Cc1cc(CNCc2ccccc2)c(C)n1C(C)c1ccccc1 (centres undefined)	2.21	7.94 µg/mL (≈ 24.9 µM)	33.3 µg/mL (≈ 105 µM)	17.6 µg/mL (≈ 55.1 µM)	4.2	
Cc1ccc(-n2c(C)cc(CNCC3CCCCC3)c2C)cc1	5.13	4.88 µg/mL (≈ 15.7 µM)	15.6 µg/mL (≈ 50.2 µM)	25.1 µg/mL (≈ 80.7 µM)	3.19	
Cc1cc(CNCC2CCCCC2)c(C)n1-c1ccccc1		0.3 µg/mL (≈ 1.01 µM)				
Cc1cc(CNC2CCCCC2)c(C)n1-c1ccc(C(=O)O)cc1		> 25 µg/mL				
Cc1ccc(-n2c(C)cc(CNCc3ccccc3)c2C)cc1	15.8	5.58 µg/mL (≈ 18.3 µM)	13.7 µg/mL (≈ 45 µM)	94 µg/mL (≈ 309 µM)	2.3	MIC90 [1]: 6.12 µg/mL (≈ 20.1 µM); MIC90 [2]: 9.16 µg/mL (≈ 30.1 µM); MIC90 [3]: 8.18 µg/mL (≈ 26.9 µM); MIC90 [5]: 6.35 µg/mL (≈ 20.9 µM); MIC90 [12]: 7.51 µg/mL (≈ 24.7 µM); Activity [13]: 2.65 log10CFU/ml
